The source of these data is publication PMC9570490, “Novel Morpholine-Bearing Quinoline Derivatives as Potential Cholinesterase Inhibitors: The Influence of Amine, Carbon Linkers and Phenylamino Groups” (International Journal of Molecular Sciences, 2022).

Assay [1] has as its target T1, AChE (EC 3.1.1.7, from electric eel) (Electrophorus electricus, UniProt O42275).
T1 construct: purchased Sigma-Aldrich
Briefly: biochemical. The conditions noted are these: for IC50: means ± SD, at least three independents. As for the experimental part: (§1) AChE and BChE inhibitory activities of compounds were determined by using a modified Ellman’s method. AChE (EC 3.1.1.7, from electric eel), BChE (EC 3.1.1.8, from horse serum), 5,5′-dithiobis(2nitrobenzoic acid) (DTNB), acetylthiocholine iodide (ATCI) and butyrylthiocholine iodide (BTCI) were purchased from Sigma-Aldrich. The reaction mixture contained 140 μL of 100 mM sodium phosphate buffer (pH 8.0), the enzyme solution (either 0.05 U/mL of AChE, 20 μL; or 0.05 U/mL of BChE, 20 μL), and test compound (20 μL). Assayed solutions of test compounds were pre-incubated with corresponding ChE at 25 °C for 15 min. The reaction was initiated by the addition of 10 μL of 10 mM DTNB and 10 μL of 7.5 mM substrate (ATCI or BTCI). The activity was determined by measuring the increase in absorbance at 412 nm at 37 °C in 10 min intervals using a microplate reader. The percentage of inhibition was calculated from the measured data as follows: (Ac − Ai)/Ac × 100%, where Ai and Ac represent the change in the absorbance in the presence of inhibitor and without inhibitor, respectively.

The target in assay [2] is T2, BChE (EC 3.1.1.8, from horse serum) (Equus caballus, UniProt P81908).
T2 construct: BChE (EC 3.1.1.8, from horse serum); purchased Sigma-Aldrich; host or cells: horse serum
T2 sequence (P81908 whole entry): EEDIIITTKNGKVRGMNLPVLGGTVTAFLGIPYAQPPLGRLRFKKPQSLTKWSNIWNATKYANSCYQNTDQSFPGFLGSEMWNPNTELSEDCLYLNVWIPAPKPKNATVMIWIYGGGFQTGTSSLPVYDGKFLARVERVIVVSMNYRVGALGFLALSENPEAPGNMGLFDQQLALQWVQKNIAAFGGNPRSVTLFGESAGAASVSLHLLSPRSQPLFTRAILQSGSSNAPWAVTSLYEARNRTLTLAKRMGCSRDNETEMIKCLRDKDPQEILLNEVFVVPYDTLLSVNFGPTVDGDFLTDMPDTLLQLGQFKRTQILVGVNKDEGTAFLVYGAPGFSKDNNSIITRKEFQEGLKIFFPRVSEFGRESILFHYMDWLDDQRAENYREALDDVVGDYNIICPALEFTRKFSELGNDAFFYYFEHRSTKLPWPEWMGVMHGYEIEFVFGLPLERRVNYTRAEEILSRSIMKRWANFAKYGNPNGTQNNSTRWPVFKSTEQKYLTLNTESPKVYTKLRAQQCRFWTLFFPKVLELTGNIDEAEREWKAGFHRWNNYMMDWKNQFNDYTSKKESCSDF
Kind of assay: biochemical. Particulars: means ± SD, at least three independents. As for the experimental part:
as §1

A short description of assay [3]: ABTS radical-scavenging assay. As for the experimental part: ABTS radical-scavenging activity was measured by using the modified method. The test compound was dissolved in ethanol as 1.0 mg/mL, 0.5 mg/mL, 0.25 mg/mL, 0.125 mg/mL, 0.0625 mg/mL, and 0.03125 mg/mL. Similarly, the ethanol solution of Trolox with the same concentration gradient was prepared as a positive control. ABTS solution at a concentration of 7 mM and potassium persulfate solution at a concentration of 2.45 mM with distilled water were also prepared. The ABTS solution and the potassium persulfate solution were mixed in equal amounts, and then placed in the dark and protected from light for 12 h. The ABTS standard solution was diluted with ethanol until the absorbance value at 734 nm was in the range of 0.7 ± 0.05. Then, 3900 µL of ABTS cation solution was mixed with 100 µL of test compound at different concentrations. The samples were kept in the dark for 10 min at room temperature and absorption was measured at 734 nm on a spectrophotometer. The percentage of ABTS radical-scavenging activity was calculated as follows: (Ac−Ai)/Ac × 100%, where Ai and Ac represented the change in absorbance in the presence and absence of the test sample, respectively.

Some results are limits rather than exact numbers.

T1 sequence (O42275 24-633): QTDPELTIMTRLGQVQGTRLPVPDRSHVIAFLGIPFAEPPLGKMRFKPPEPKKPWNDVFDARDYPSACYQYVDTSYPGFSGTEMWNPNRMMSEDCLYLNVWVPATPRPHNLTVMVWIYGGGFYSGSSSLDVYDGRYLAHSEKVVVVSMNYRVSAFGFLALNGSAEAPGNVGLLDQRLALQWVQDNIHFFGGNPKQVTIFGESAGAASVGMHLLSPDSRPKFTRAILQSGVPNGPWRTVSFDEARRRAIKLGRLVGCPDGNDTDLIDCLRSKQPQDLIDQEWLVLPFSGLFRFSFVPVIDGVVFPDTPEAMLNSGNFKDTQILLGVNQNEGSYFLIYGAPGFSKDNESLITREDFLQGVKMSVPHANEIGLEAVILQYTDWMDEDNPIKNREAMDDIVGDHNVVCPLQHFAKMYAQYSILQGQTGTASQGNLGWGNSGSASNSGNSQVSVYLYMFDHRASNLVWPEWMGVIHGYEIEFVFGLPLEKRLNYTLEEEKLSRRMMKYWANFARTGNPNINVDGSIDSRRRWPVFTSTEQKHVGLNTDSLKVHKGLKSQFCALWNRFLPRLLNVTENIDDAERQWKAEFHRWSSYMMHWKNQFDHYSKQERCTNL

A word on the IC50: it is the midpoint of a concentration-inhibition curve. For the compound `COc1cc2c(Nc3ccccc3Cl)c([N+](=O)[O-])cnc2cc1OCCCN1CCOCC1` [11b, 6-Methoxy-7-(3-Morpholinopropoxy)-3-Nitro-4-(2-Chlorophenylamino)-Quinoline], in assay [1], the “SI for AChE = IC50 BChE/IC50 AChE” value amounted to 10.42 and the half-inhibitory concentration (IC50) amounted to 12.5 ± 0.21 µM. For the same compound, in assay [2], it took 130 ± 4.62 µM to reach half-maximal inhibition (IC50).

For the compound `COc1cc2c(Nc3cccc(Cl)c3)c([N+](=O)[O-])cnc2cc1OCCCN1CCOCC1` [11c, 6-Methoxy-7-(3-Morpholinopropoxy)-3-Nitro-4-(3-Chlorophenylamino)-Quinoline], in assay [1], the “SI for AChE = IC50 BChE/IC50 AChE” value worked out at 3.55. In addition, the IC50 in assay [1] is 32.4 ± 0.16 µM; in assay [2] it was 114 ± 5.36 µM.

Regarding `COc1cc2c(Nc3ccc(Cl)cc3)c([N+](=O)[O-])cnc2cc1OCCCN1CCOCC1` [11d, 6-Methoxy-7-(3-Morpholinopropoxy)-3-Nitro-4-(4-Chlorophenylamino)-Quinoline], in assay [1], the “SI for AChE = IC50 BChE/IC50 AChE” value came out at 0.92 and the IC50 was 88.7 ± 1.1 µM. 82.4 ± 3.06 µM corresponded to half-maximal inhibition in assay [2] (IC50).

For `COc1cc2c(Nc3ccc(O)cc3)c([N+](=O)[O-])cnc2cc1OCCCN1CCOCC1` [11e, 6-Methoxy-7-(3-Morpholinopropoxy)-3-Nitro-4-(4-Hydroxylphenylamino)-Quinoline], the “ABTS radical-scavenging IC50” value in assay [3] was determined as 12.01 ± 1.49 µg/mL. The IC50 in assay [3] was 26.4 ± 3.28 µM; in assay [1] it was 34.47 ± 0.09 µM; in assay [2] it was more than 150 µM. The “SI for AChE = IC50 BChE/IC50 AChE” value in assay [1] is recorded as more than 4.35.

Consider `COc1ccc(Nc2c([N+](=O)[O-])cnc3cc(OCCCN4CCOCC4)c(OC)cc23)cc1` [11f, 6-Methoxy-7-(3-Morpholinopropoxy)-3-Nitro-4-(4-Methoxyphenylamino)-Quinoline], for which the “ABTS radical-scavenging IC50” value in assay [3] is 4.25 ± 0.63 µg/mL. Further, the values for the IC50 in assay [3], in assay [1] and in assay [2] were 9.07 ± 1.34 µM, 12.8 ± 0.55 µM and 96.6 ± 4.75 µM, respectively. Besides, the “SI for AChE = IC50 BChE/IC50 AChE” value in assay [1] was found to be 7.54.

Turning to `COc1cc2c(Nc3ccccc3Cl)c([N+](=O)[O-])cnc2cc1OCCN1CCOCC1` [11h, 6-Methoxy-7-(2-Morpholinoethoxy)-3-Nitro-4-(2-Chlorophenylamino)-Quinoline], in assay [1], the “SI for AChE = IC50 BChE/IC50 AChE” value amounted to 12.55 and half-maximal inhibition (IC50) was put at 6.46 ± 0.77 µM. Further, in assay [2], half-maximal inhibition (IC50) required 81.1 ± 4.03 µM.

`COc1cc2c(Nc3cccc(Cl)c3)c([N+](=O)[O-])cnc2cc1OCCN1CCOCC1` [11i, 6-Methoxy-7-(2-Morpholinoethoxy)-3-Nitro-4-(3-Chlorophenylamino)-Quinoline]: in assay [1], the “SI for AChE = IC50 BChE/IC50 AChE” value worked out at 11.08 and inhibition was half-maximal at 10 ± 0.52 µM (IC50). The same compound displayed a half-maximal inhibitory concentration (IC50) in assay [2] of 111 ± 5.59 µM.

On to `COc1cc2c(Nc3ccc(Cl)cc3)c([N+](=O)[O-])cnc2cc1OCCN1CCOCC1` [11j, 6-Methoxy-7-(2-Morpholinoethoxy)-3-Nitro-4-(4-Chlorophenylamino)-Quinoline], for which, in assay [1], the “SI for AChE = IC50 BChE/IC50 AChE” value is on record as 8.90 and half-maximal inhibition (IC50) required 8.63 ± 0.4 µM. This compound had a half-maximal inhibitory concentration (IC50) in assay [2] of 76.8 ± 3.76 µM.

For the compound `COc1cc2c(Nc3ccc(O)cc3)c([N+](=O)[O-])cnc2cc1OCCN1CCOCC1` [11k, 6-Methoxy-7-(2-Morpholinoethoxy)-3-Nitro-4-(4-Hydroxylphenylamino)-Quinoline], the “ABTS radical-scavenging IC50” value in assay [3] stood at 5.75 ± 1.37 µg/mL. Further, in assay [1], the “SI for AChE = IC50 BChE/IC50 AChE” value is recorded as more than 8.11 and the IC50 is 18.5 ± 1.74 µM. Also, the concentration for half-maximal inhibition (IC50) in assay [2] is more than 150 µM.

As for `COc1ccc(Nc2c([N+](=O)[O-])cnc3cc(OCCN4CCOCC4)c(OC)cc23)cc1` [11l, 6-Methoxy-7-(2-Morpholinoethoxy)-3-Nitro-4-(4-Methoxyphenyamino)-Quinoline], in assay [3], the “ABTS radical-scavenging IC50” value worked out at 2.75 ± 0.53 µg/mL and the IC50 was determined as 6.05 ± 1.17 µM. Besides, in assay [1], the “SI for AChE = IC50 BChE/IC50 AChE” value is 7.03 and the IC50 is 9.08 ± 0.53 µM. In assay [2], the half-maximal inhibitory concentration (IC50) amounted to 63.9 ± 2.87 µM.

For the compound `COc1cc2c(Nc3ccccc3)c([N+](=O)[O-])cnc2cc1OCCCCN1CCOCC1` [11m, 6-Methoxy-7-(4-Morpholinobutoxy)-3-Nitro-4-Phenylamino-Quinoline], in assay [1], the “SI for AChE = IC50 BChE/IC50 AChE” value is more than 11.24 and the half-inhibitory concentration (IC50) is 13.34 ± 0.07 µM. In assay [2], this compound had an IC50 of more than 150 µM.

In the case of `COc1cc2c(Nc3ccccc3Cl)c([N+](=O)[O-])cnc2cc1OCCCCN1CCOCC1` [11n, 6-Methoxy-7-(4-Morpholinobutoxy)-3-Nitro-4-(2-Chlorophenylamino)-Quinoline], in assay [1], the “SI for AChE = IC50 BChE/IC50 AChE” value is more than 1.75 and 85.57 ± 0.04 µM corresponded to half-maximal inhibition (IC50). In assay [2], this compound registered an IC50 of more than 150 µM.

In the case of `COc1cc2c(Nc3cccc(Cl)c3)c([N+](=O)[O-])cnc2cc1OCCCCN1CCOCC1` [11o, 6-Methoxy-7-(4-Morpholinobutoxy)-3-Nitro-4-(3-Chlorophenylamino)-Quinoline], the “SI for AChE = IC50 BChE/IC50 AChE” value in assay [1] was less than 0.77. The IC50 is more than 150 µM in assay [1] and 116 ± 5.36 µM in assay [2].

As for `COc1cc2c(Nc3ccc(Cl)cc3)c([N+](=O)[O-])cnc2cc1OCCCCN1CCOCC1` [11p, 6-Methoxy-7-(4-Morpholinobutoxy)-3-Nitro-4-(4-Chlorophenylamino)-Quinoline], in assay [1], the “SI for AChE = IC50 BChE/IC50 AChE” value was 1.08 and the IC50 was determined as 90.46 ± 0.06 µM. In assay [2], this compound had an IC50 of 98.1 ± 0.02 µM.

Consider `COc1cc2c(Nc3ccc(O)cc3)c([N+](=O)[O-])cnc2cc1OCCCCN1CCOCC1` [11q, 6-Methoxy-7-(4-Morpholinobutoxy)-3-Nitro-4-(4-Hydroxyphenylamino)-Quinoline], for which, in assay [3], the “ABTS radical-scavenging IC50” value was determined as 26.12 ± 2.13 µg/mL and the half-inhibitory concentration (IC50) came to 55.8 ± 4.55 µM. In assay [1], the “SI for AChE = IC50 BChE/IC50 AChE” value is on record as more than 4.07 and inhibition was half-maximal at 36.8 ± 0.45 µM (IC50). The half-maximal inhibitory concentration (IC50) in assay [2] was more than 150 µM.

As to `COc1ccc(Nc2c([N+](=O)[O-])cnc3cc(OCCCCN4CCOCC4)c(OC)cc23)cc1` [11r, 6-Methoxy-7-(4-Morpholinobutoxy)-3-Nitro-4-(4-Methoxyphenylamino)-Quinoline], the “ABTS radical-scavenging IC50” value in assay [3] came to 11.25 ± 1.27 µg/mL. The half-inhibitory concentration (IC50) came to 23.3 ± 2.63 µM in assay [3], 18.9 ± 0.51 µM in assay [1] and 106 ± 1.16 µM in assay [2]. Besides, the “SI for AChE = IC50 BChE/IC50 AChE” value in assay [1] turned out to be 5.65.

On to `COc1cc2c(Nc3ccccc3Cl)c(N)cnc2cc1OCCCN1CCOCC1` [12b, 6-Methoxy-7-(3-Morpholinopropoxy)-3-Amino-4-(2-Chlorophenylamino)-Quinoline], for which, in assay [1], the “SI for AChE = IC50 BChE/IC50 AChE” value came to 3.01 and it took 43.3 ± 0.68 µM to reach half-maximal inhibition (IC50). In assay [2], this compound yielded a half-maximal inhibitory concentration (IC50) of 130 ± 3.76 µM.

With `COc1cc2c(Nc3ccc(Cl)cc3)c(N)cnc2cc1OCCCN1CCOCC1` [12d, 6-Methoxy-7-(3-Morpholinopropoxy)-3-Amino-4-(4-Chlorophenylamino)-Quinoline], the “SI for AChE = IC50 BChE/IC50 AChE” value in assay [1] is listed as 6.63. The figures for the IC50 in assay [1] and in assay [2] were 21.84 ± 0.2 µM and 145 ± 4.25 µM, respectively.

As to `Cc1c(C)c2c(c(C)c1O)CCC(C)(C(=O)O)O2` (stereo not shown) [Trolox, reference compound], in assay [3], the “ABTS radical-scavenging IC50” value stood at 2.76 ± 0.19 µg/mL and inhibition was half-maximal at 11 ± 0.76 µM (IC50).
